Values quoted from earlier work, collected in US20120022114A1, “Low-dose, non-irritating nicotine nasal composition to reduce the desire to smoke” (Laboratorio Pablo Cassara S.R.L., priority 2009, published 2012).

Settings: when inhaled; on average

CN1CCCC1c1cccnc1 (stereo not shown) [nicotine, Nicotine]
Time for the substance to reach the brain: about seven
